What was measured:
[1] = molecular target: T1, XYL10C-ΔN (Bispora sp. MEY-1, UniProt D0QF43); experiment: HPAEC of hydrolysis products; format: biochemical; conditions: pH 4.5, 70 °C, 16 h, Na2HPO4-citric acid; products mainly xylose and xylobiose
T1 construct: 18-residue signal peptide and the next 66 N-terminal residues removed; pPIC9, Pichia pastoris GS115; deglycosylated with Endo Hf; two monomers in asymmetric unit

[2] = molecular target: T2, XYL10C (Bispora sp. MEY-1, UniProt D0QF43); experiment: HPAEC of hydrolysis products; format: biochemical; conditions: pH 4.5, 70 °C, 16 h, Na2HPO4-citric acid; products mainly xylose and xylobiose
T2 construct: 18-residue signal peptide
T2 sequence (D0QF43 19-424): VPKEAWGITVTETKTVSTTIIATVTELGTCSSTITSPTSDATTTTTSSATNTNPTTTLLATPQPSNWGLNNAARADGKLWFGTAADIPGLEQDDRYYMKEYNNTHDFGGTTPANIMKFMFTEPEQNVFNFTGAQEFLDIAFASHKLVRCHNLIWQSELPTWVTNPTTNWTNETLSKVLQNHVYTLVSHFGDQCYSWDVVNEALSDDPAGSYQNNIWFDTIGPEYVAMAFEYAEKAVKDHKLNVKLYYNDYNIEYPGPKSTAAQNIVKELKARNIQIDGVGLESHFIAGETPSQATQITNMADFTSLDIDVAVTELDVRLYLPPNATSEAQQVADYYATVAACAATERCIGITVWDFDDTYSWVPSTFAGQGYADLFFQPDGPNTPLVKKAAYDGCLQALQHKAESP

| SMILES | HPAEC of hydrolysis products [1] | HPAEC of hydrolysis products [2] |
| --- | --- | --- |
| OC1OC[C@@H](O[C@@H]2OC[C@@H](O[C@@H]3OC[C@@H](O)[C@H](O)[C@H]3O)[C@H](O)[C@H]2O)[C@H](O)[C@H]1O (stereo partly shown) [X3, xylotriose] | employed an endo-mode of action to cleave xylotriose, xylotetraose, xylopentaose, xylohexaose | employed an endo-mode of action to cleave xylotriose, xylotetraose, xylopentaose, xylohexaose |
| OC1OC[C@@H](O[C@@H]2OC[C@@H](O[C@@H]3OC[C@@H](O[C@@H]4OC[C@@H](O[C@@H]5OC[C@@H](O[C@@H]6OC[C@@H](O)[C@H](O)[C@H]6O)[C@H](O)[C@H]5O)[C@H](O)[C@H]4O)[C@H](O)[C@H]3O)[C@H](O)[C@H]2O)[C@H](O)[C@H]1O (stereo partly shown) [X6, xylohexaose] | employed an endo-mode of action to cleave xylotriose, xylotetraose, xylopentaose, xylohexaose | employed an endo-mode of action to cleave xylotriose, xylotetraose, xylopentaose, xylohexaose |
